Measurements reported in ChEMBL document CHEMBL1649226, “Species identification and antifungal susceptibility patterns of species belonging to Aspergillus section Nigri” (2009).
Converted amounts (≈) assume the structure as drawn.

Columns and labels:
Format in all cases: functional
Aspergillus niger [1] = experiment: Antifungal activity against Aspergillus niger isolate CM-4213 obtained from respiratory tract infection of patient after 48 hrs by EUCAST broth dilution method; conditions: isolate CM-4213, 48 h
Aspergillus tubingensis [2] = experiment: Antifungal activity against Aspergillus tubingensis isolate CM-4352 obtained from respiratory tract infection of patient after 48 hrs by EUCAST broth dilution method; conditions: isolate CM-4352, 48 h
Aspergillus tubingensis [3] = experiment: Antifungal activity against Aspergillus tubingensis isolate CM-4003 after 48 hrs by EUCAST broth dilution method; conditions: isolate CM-4003, 48 h
Aspergillus niger [4] = experiment: Antifungal activity against Aspergillus niger isolate CM-3236 obtained from respiratory tract infection of patient after 48 hrs by EUCAST broth dilution method; conditions: isolate CM-3236, 48 h
Aspergillus niger [5] = experiment: Antifungal activity against Aspergillus niger isolate CM-3551 obtained from respiratory tract infection of patient after 48 hrs by EUCAST broth dilution method; conditions: isolate CM-3551, 48 h
Aspergillus tubingensis [6] = experiment: Antifungal activity against Aspergillus tubingensis isolate CM-4000 after 48 hrs by EUCAST broth dilution method; conditions: isolate CM-4000, 48 h
Aspergillus tubingensis [7] = experiment: Antifungal activity against Aspergillus tubingensis isolate CM-3125 obtained from respiratory tract infection of patient after 48 hrs by EUCAST broth dilution method; conditions: isolate CM-3125, 48 h
Aspergillus niger [8] = experiment: Antifungal activity against Aspergillus niger isolate CM-4262 after 48 hrs by EUCAST broth dilution method Ophthalmic; conditions: isolate CM-4262, 48 h
Aspergillus niger [9] = experiment: Antifungal activity against Aspergillus niger isolate CM-3506 obtained from respiratory tract infection of patient after 48 hrs by EUCAST broth dilution method; conditions: isolate CM-3506, 48 h
Aspergillus tubingensis [10] = experiment: Antifungal activity against Aspergillus tubingensis isolate CM-3654 obtained from blood culture after 48 hrs by EUCAST broth dilution method; conditions: isolate CM-3654, 48 h
Aspergillus niger [11] = experiment: Antifungal activity against Aspergillus niger isolate CM-3636 obtained from respiratory tract infection of patient after 48 hrs by EUCAST broth dilution method; conditions: isolate CM-3636, 48 h
Aspergillus tubingensis [12] = experiment: Antifungal activity against Aspergillus tubingensis isolate CM-3123 obtained from respiratory tract infection of patient after 48 hrs by EUCAST broth dilution method; conditions: isolate CM-3123, 48 h
Aspergillus niger [13] = experiment: Antifungal activity against Aspergillus niger isolate CM-3586 obtained from catheter of patient after 48 hrs by EUCAST broth dilution method; conditions: isolate CM-3586, 48 h
Aspergillus tubingensis [14] = experiment: Antifungal activity against Aspergillus tubingensis isolate CM-4296 obtained from respiratory tract infection of patient after 48 hrs by EUCAST broth dilution method; conditions: isolate CM-4296, 48 h
Aspergillus tubingensis [15] = experiment: Antifungal activity against Aspergillus tubingensis isolate CM-4897 obtained from blood culture after 48 hrs by EUCAST broth dilution method; conditions: isolate CM-4897, 48 h
Aspergillus tubingensis [16] = experiment: Antifungal activity against Aspergillus tubingensis isolate CM-3507 obtained from respiratory tract infection of patient after 48 hrs by EUCAST broth dilution method; conditions: isolate CM-3507, 48 h
Aspergillus tubingensis [17] = experiment: Antifungal activity against Aspergillus tubingensis isolate CM-5094 obtained from respiratory tract infection of patient after 48 hrs by EUCAST broth dilution method; conditions: isolate CM-5094, 48 h
Aspergillus foetidus [18] = experiment: Antifungal activity against Aspergillus foetidus isolate CM-4002 after 48 hrs by EUCAST broth dilution method; conditions: isolate CM-4002, 48 h
Aspergillus foetidus [19] = experiment: Antifungal activity against Aspergillus foetidus isolate CM-4995 obtained from prosthesis after 48 hrs by EUCAST broth dilution method; conditions: isolate CM-4995, 48 h
Aspergillus tubingensis [20] = experiment: Antifungal activity against Aspergillus tubingensis isolate CM-3585 after 48 hrs by EUCAST broth dilution method; conditions: isolate CM-3585, 48 h
Aspergillus tubingensis [21] = experiment: Antifungal activity against Aspergillus tubingensis isolate CM-4688 obtained from respiratory tract infection of patient after 48 hrs by EUCAST broth dilution method; conditions: isolate CM-4688, 48 h
Aspergillus tubingensis [22] = experiment: Antifungal activity against Aspergillus tubingensis isolate CM-4264 obtained from blood culture after 48 hrs by EUCAST broth dilution method; conditions: isolate CM-4264, 48 h
Aspergillus tubingensis [23] = experiment: Antifungal activity against Aspergillus tubingensis isolate CM-4001 after 48 hrs by EUCAST broth dilution method; conditions: isolate CM-4001, 48 h
Aspergillus tubingensis [24] = experiment: Antifungal activity against Aspergillus tubingensis isolate CM-3177 obtained from respiratory tract infection of patient after 48 hrs by EUCAST broth dilution method; conditions: isolate CM-3177, 48 h
Aspergillus niger [25] = experiment: Antifungal activity against Aspergillus niger isolate CM-4004 obtained from after 48 hrs by EUCAST broth dilution method; conditions: isolate CM-4004, 48 h
Aspergillus tubingensis [26] = experiment: Antifungal activity against Aspergillus tubingensis isolate CM-3810 obtained from respiratory tract infection of patient after 48 hrs by EUCAST broth dilution method; conditions: isolate CM-3810, 48 h
Aspergillus foetidus [27] = experiment: Antifungal activity against Aspergillus foetidus isolate CM-5264 obtained from respiratory tract infection of patient after 48 hrs by EUCAST broth dilution method; conditions: isolate CM-5264, 48 h
Aspergillus niger [28] = experiment: Antifungal activity against Aspergillus niger isolate CM-3641 obtained from respiratory tract infection of patient after 48 hrs by EUCAST broth dilution method; conditions: isolate CM-3641, 48 h
Aspergillus tubingensis [29] = experiment: Antifungal activity against Aspergillus tubingensis isolate CM-4005 after 48 hrs by EUCAST broth dilution method; conditions: isolate CM-4005, 48 h
Aspergillus niger [30] = experiment: Antifungal activity against Aspergillus niger isolate CM-5095 obtained from respiratory tract infection of patient after 48 hrs by EUCAST broth dilution method; conditions: isolate CM-5095, 48 h
Aspergillus niger [31] = experiment: Antifungal activity against Aspergillus niger isolate CM-4316 obtained from respiratory tract infection of patient after 48 hrs by EUCAST broth dilution method; conditions: isolate CM-4316, 48 h
Aspergillus tubingensis [32] = experiment: Antifungal activity against Aspergillus tubingensis isolate CM-4899 obtained from respiratory tract infection of patient after 48 hrs by EUCAST broth dilution method; conditions: isolate CM-4899, 48 h
Aspergillus niger [33] = experiment: Antifungal activity against Aspergillus niger isolate CM-3672 obtained from cutaneous layer of patient after 48 hrs by EUCAST broth dilution method; conditions: isolate CM-3672, 48 h
Aspergillus niger [34] = experiment: Antifungal activity against Aspergillus niger isolate CM-3257 obtained from respiratory tract infection of patient after 48 hrs by EUCAST broth dilution method; conditions: isolate CM-3257, 48 h

MIC (Aspergillus niger [1]): 0.33 µg/mL (≈ 0.357 µM)
MIC (Aspergillus tubingensis [2]): 0.28 µg/mL (≈ 0.303 µM)
MIC (Aspergillus tubingensis [3]): 0.12 µg/mL (≈ 0.13 µM)
MIC (Aspergillus niger [4]): 0.19 µg/mL (≈ 0.206 µM)
MIC (Aspergillus niger [5]): 0.5 µg/mL (≈ 0.541 µM)
MIC (Aspergillus tubingensis [6]): 0.16 µg/mL (≈ 0.173 µM)
MIC (Aspergillus tubingensis [7]): 0.12 µg/mL (≈ 0.13 µM)
MIC (Aspergillus niger [8]): 0.25 µg/mL (≈ 0.271 µM)
MIC (Aspergillus niger [9]): 0.19 µg/mL (≈ 0.206 µM)
MIC (Aspergillus tubingensis [10]): 0.19 µg/mL (≈ 0.206 µM)
MIC (Aspergillus niger [11]): 0.25 µg/mL (≈ 0.271 µM)
MIC (Aspergillus tubingensis [12]): 0.25 µg/mL (≈ 0.271 µM)
MIC (Aspergillus niger [13]): 0.25 µg/mL (≈ 0.271 µM)
MIC (Aspergillus tubingensis [14]): 0.12 µg/mL (≈ 0.13 µM)
MIC (Aspergillus tubingensis [15]): 0.16 µg/mL (≈ 0.173 µM)
MIC (Aspergillus tubingensis [16]): 0.19 µg/mL (≈ 0.206 µM)
MIC (Aspergillus tubingensis [17]): 0.12 µg/mL (≈ 0.13 µM)
MIC (Aspergillus foetidus [18]): 0.25 µg/mL (≈ 0.271 µM)
MIC (Aspergillus foetidus [19]): 0.21 µg/mL (≈ 0.227 µM)
MIC (Aspergillus tubingensis [20]): 0.19 µg/mL (≈ 0.206 µM)
MIC (Aspergillus tubingensis [21]): 0.21 µg/mL (≈ 0.227 µM)
MIC (Aspergillus tubingensis [22]): 0.12 µg/mL (≈ 0.13 µM)
MIC (Aspergillus tubingensis [23]): 0.19 µg/mL (≈ 0.206 µM)
MIC (Aspergillus tubingensis [24]): 0.16 µg/mL (≈ 0.173 µM)
MIC (Aspergillus niger [25]): 0.25 µg/mL (≈ 0.271 µM)
MIC (Aspergillus tubingensis [26]): 0.25 µg/mL (≈ 0.271 µM)
MIC (Aspergillus foetidus [27]): 0.12 µg/mL (≈ 0.13 µM)
MIC (Aspergillus niger [28]): 0.25 µg/mL (≈ 0.271 µM)
MIC (Aspergillus tubingensis [29]): 0.12 µg/mL (≈ 0.13 µM)
MIC (Aspergillus niger [30]): 0.19 µg/mL (≈ 0.206 µM)
MIC (Aspergillus niger [31]): 0.19 µg/mL (≈ 0.206 µM)
MIC (Aspergillus tubingensis [32]): 0.16 µg/mL (≈ 0.173 µM)
MIC (Aspergillus niger [33]): 0.12 µg/mL (≈ 0.13 µM)
MIC (Aspergillus niger [34]): 0.25 µg/mL (≈ 0.271 µM)
SMILES: C[C@@H]1[C@H](O)[C@@H](C)/C=C/C=C/C=C/C=C/C=C/C=C/C=C/[C@H](O[C@@H]2O[C@H](C)[C@@H](O)[C@H](N)[C@@H]2O)C[C@@H]2O[C@](O)(C[C@@H](O)C[C@@H](O)[C@H](O)CC[C@@H](O)C[C@@H](O)CC(=O)O[C@H]1C)C[C@H](O)[C@H]2C(=O)O [AMPHOTERICIN B]
